From article PMC6272027, “Trithiocyanurate Complexes of Iron, Manganese and Nickel and Their Anticholinesterase Activity” (Molecules, 2014)

Target: cholinesterases (rat brain homogenate)
Assay: In vitro anticholinesterase inhibition test (rat brain homogenate, acetylcholine iodide substrate, automatic titration)
Format: biochemical
Conditions: anticholinesterase activity in vitro; for IC50: rat brain homogenate, substrate acetylcholine iodide; for HillSlope: nonlinear regression (GraphPad Prism)
Description: In vitro inhibition test was conducted as described earlier. Solutions of the prepared Fe(L1)](ttcH2)(ClO4)·EtOH·H2O (1), [Mn3(phen)6(ttc)](ClO4)3 (2), and Ni2(L2)(ttcH)(ClO4)2·6H2O·EtOH (3) complexes of appropriate concentrations (concentration range from 10^−7 to 10^−1 M; 500 µL) were added to the suspension of rat brain homogenate (10 w/v in distilled water; 500 µL), solution of sodium chloride (3 M; 2.5 mL) and water (20 mL). Subsequently, a solution of acetylcholine iodide (0.02 M; 2.0 mL) was added (=starting of the enzyme reaction). The enzyme activity was immediately determined using of automatic titrator RTS 822 (Radiometer, Bronshoj, Denmark). The IC50 values were calculated from a plot of percent inhibition of cholinesterases versus its concentration. […] Nonlinear regression was performed using software for statistical analysis GraphPad Prism version 4 for Windows (GraphPad Software, San Diego, CA, USA; www.graphpad.com).

Compound	IC50 [µM]	HillSlope
O=S(=O)([O-])[O-].[Mn+2] [MnSO4, reference compound]	> 1000	
O=S(=O)([O-])[O-].[Ni+2] [NiSO4, reference compound]	12900	−0.3920
[Mn3(phen)6(ttc)](ClO4)3 [compound 2]	33.4	0.2280
O=S(=O)([O-])[O-].[Fe+2] [FeSO4, reference compound]	> 1000	
